Data on 4 molecules can be found in patent publication US12110255B2, “Additive formulation for reduction or prevention of microbially induced corrosion in concrete or cementitious material” (MICROBAN PRODUCTS COMPANY, priority 2017, dated 2024).

Experiment [1] has as its system Aspergillus niger. As to the kind of experiment: Minimum Inhibitory Concentration (MIC) test. The experiment is classed as cell-based. The following applies: Table 5, Tributyl Phosphate Defoamer: No. The method, then: (§1) Testing was also conducted to determine whether the addition of the defoamer or mixing the QS and OIT together would have any effect on the microbial efficacy of these components.

The test system of experiment [2] is Fusarium oxysporum. As to the kind of experiment: Minimum Inhibitory Concentration (MIC) test, aqueous state. The class given is cell-based. The settings on record: for MIC: Fusarium oxysporum. The method, then: (§2) Table 1 indicates the MIC values generated against Th. Novella, Fusarium and a combination of the two for two antifungal additives that were tested in the aqueous state.
In addition to testing the active ingredients alone, MIC tests were conducted for combinations of the QS and the antifungal actives. An OIT active material was added to this test using the QS molecule to compatibilize the mixture, making the mixture water soluble so MIC testing was possible. Table 2 summarizes the MIC data generated for these actives:
as §1

Experiment [3] has as its system Starkeya + Fusarium. The experiment is described as above. The experiment is classed as cell-based, Starkeya novella + Fusarium oxysporum. The following applies: for MIC: Fusarium, read-out: Active Ingredient Minimum Inhibitory Concentration, Starkeya + Fusarium. The method, then:
as §2
(§3) In addition to testing the active ingredients alone, MIC tests were conducted for combinations of the QS and the antifungal actives. An OIT active material was added to this test using the QS molecule to compatibilize the mixture, making the mixture water soluble so MIC testing was possible. Table 2 summarizes the MIC data generated for these actives: […]

Experiment [4] deals with Starkeya novella. The description is as above. The experiment is classed as cell-based. The settings on record: Ancylobacter novellus, active ingredient alone. The method, then:
as §2, §3

The mark [5] stands for this setting: Table 5, Tributyl Phosphate Defoamer: No, read-out: MIC, Fusarium oxysporum.
Setting [6] is: active ingredient alone, aqueous state.

≈ marks a conversion by molar mass, not a printed value. Like-named read-outs stand apart in the source and are kept apart here.

Turning to `CCCCCCCCn1sccc1=O` [OIT, 2-Octyl-2H-isothiazol-3-one], the results for the MIC in experiment [1] and in experiment [2] (setting [5]) were 6.3 µg/mL (≈ 29.5 µM) and 6.3 µg/mL, respectively.

Regarding `Oc1ccccc1-c1ccccc1.[Na]` [P2, Sodium OrthophenylPhenol], the MIC worked out at 250 µg/mL in experiment [2] (read-out: Active Ingredient Minimum Inhibitory Concentration, Fusarium oxysporum) and 125 µg/mL in experiment [3].

In the case of `CCCCCCCCCCCCCCCCCC[N+](C)(C)CCC[Si](OC)(OC)OC.[Cl-]` [QS, 1-Octadecanaminium, N,N-dimethyl-N-(3-(trimethoxysilyl)propyl)-, chloride], the MIC was 7.8 µg/mL in experiment [4]; 125 µg/mL in experiment [1]; 15.6 µg/mL in experiment [2] (setting [5]); 15.6 µg/mL in experiment [2] (active ingredient alone, aqueous state, read-out: Active Ingredient Minimum Inhibitory Concentration, Fusarium oxysporum); 31.3 µg/mL in experiment [3] (setting [6]).

For the molecule Imazalil Sulphate [IF4], in experiment [2] (setting [6]), the “Active Ingredient Minimum Inhibitory Concentration, Fusarium oxysporum” value was determined as 500 ppm. Also, in experiment [3] (setting [6]), the “Active Ingredient Minimum Inhibitory Concentration, Starkeya + Fusarium” value was 500 ppm.
